In patent US10213470B2, “Method for treating spinocerebellar ataxias” (NATIONAL TAIWAN NORMAL UNIVERSITY, priority 2015, dated 2019):

Tests used:
[1] = system: ATXN3/Q75 aggregation in 293 ATXN3/Q75-GFP cells; assay: ATXN3/Q75 aggregation analysis by high-content analysis in 293 ATXN3/Q75-GFP cells; type: cell-based, Human; settings: at 100 nM; 8 h pre-treatment, then doxycycline and oxaliplatin 6 days
Description: (§1) Human 293 ATXN3/Q75-GFP cells were cultured in Dulbecco's modified Eagle's medium (DMEM) containing 10% fetal bovine serum (FBS), 5 μg/mL blasticidin, and 100 μg/mL hygromycin (InvivoGen). Human neuroblastoma SH-SY5Y cells (ATCC No. CRL-2266) were cultured in DMEM F12 supplemented with 10% FBS. Mouse RAW 264.7 macrophages and BV-2 microglia were cultured in DMEM containing 10% FBS. Cells were all cultured in a 37° C. incubator containing 5% CO2.
293 ATXN3/Q75-GFP cells were cultured in 96-well (2×10^4/well) plates for 24 h and treated with different concentrations of suberoylanilide hydroxamic acid (SAHA, Cayman Chemical) (100 nM), Paeonia lactiflora, Glycyrrhiza uralensis, or Shao Yao Kan Tsao Tang (SK Tang) (0.01-10 μg/mL) for 8 h. Next, doxycycline (10 μg/mL, BD) and oxaliplatin (5 μM, Sigma) were added for 6 days. Cells were then stained with Hoechst 33342 (0.1 μg/mL, Sigma-Aldrich). Aggregation was then analyzed by high-content analysis (HCA) system (ImageXpressMICRO, Molecular Devices). The histone deacetylase inhibitor SAHA, known to reduce SDS-insoluble polyQ aggregates, was included for comparison.
To normalize data, the relative aggregation level in untreated cells is set as 100%. […] Good aggregation-inhibitory potential can be seen from Paeonia lactiflora (75-78% at 1-10 μg/mL), Glycyrrhiza uralensis (73-85% at 0.01-1 μg/mL), and SK Tang (79-84% at 0.01-10 μg/mL). […]

NO = NO secretion in LPS-stimulated RAW 264.7 macrophages (Griess reagent); type: cell-based, Mouse; settings: 50 μM, 8 h pre-treatment, LPS 1 μg/mL 20 h
Description: as §1
(§2) The anti-inflammatory activity of SK Tang was examined using LPS-stimulated RAW 264.7 macrophage and BV-2 microglia. RAW 264.7 cells (10^6) were cultured in 6-well plates for 20 h and pre-treated with celecoxib, which is a nonsteroidal anti-inflammatory drug (named as Cele. in FIGS. 4A-4D) (50 μM) or SK Tang (0.5-2 mg/mL) for 8 h. Next, cells were stimulated by LPS (1 μg/mL) for 20 h. LPS-induced secretions of NO, TNF-α, IL-1β, and IL-6 in RAW 264.7 cells were then determined using Griess reagent or ELISA assay.
(§3) To normalize data, the relative NO/TNF-α/IL-1β/IL-6 level in LPS-stimulated cells is set as 100%. As shown in FIGS. 4A-4D, the exposure of RAW 264.7 cells to LPS results in significant secretions of NO, TNF-α, IL-1β, and IL-6 after 24 h incubation (1-12% vs. 100%, P<0.001). […]

TNF-α = TNF-α secretion in LPS-stimulated RAW 264.7 macrophages (ELISA); type: cell-based, Mouse; settings: 50 μM, 8 h pre-treatment, LPS 1 μg/mL 20 h
Description: as §1, §2, §3

IL-1β = IL-1β secretion in LPS-stimulated RAW 264.7 macrophages (ELISA); type: cell-based, Mouse; settings: 50 μM, 8 h pre-treatment, LPS 1 μg/mL 20 h
Description: as §1, §2, §3

IL-6 = IL-6 secretion in LPS-stimulated RAW 264.7 macrophages (ELISA); type: cell-based, Mouse; settings: 50 μM, 8 h pre-treatment, LPS 1 μg/mL 20 h
Description: as §1, §2, §3

| Structure (SMILES) | ATXN3/Q75 aggregation relative to untreated cells (100%) [1] [%] | NO level relative to LPS-stimulated cells (100%) (NO) [%] | TNF-α level relative to LPS-stimulated cells (100%) (TNF-α) [%] | IL-1β level relative to LPS-stimulated cells (100%) (IL-1β) [%] | IL-6 level relative to LPS-stimulated cells (100%) (IL-6) [%] |
| --- | --- | --- | --- | --- | --- |
| O=C(CCCCCCC(=O)Nc1ccccc1)NO [SAHA, suberoylanilide hydroxamic acid] | 85 | – | – | – | – |
| Cc1ccc(-c2cc(C(F)(F)F)nn2-c2ccc(S(N)(=O)=O)cc2)cc1 [celecoxib] | – | 39 | 23 | 20 | 29 |
